This is an account of results in PMC7586344, “Discovery of Novel pERK1/2- or β-Arrestin-Preferring 5-HT1A Receptor-Biased Agonists: Diversified Therapeutic-like versus Side Effect Profile” (Journal of Medicinal Chemistry, 2020).

In general, inhibition refers to the drop in the measured response relative to a control, in per cent.

The target of one series is T1, 5-HT2C (Homo sapiens, UniProt P28335).
T1 construct: Eurofins Pharma Discovery Services (contract screen)
T1 sequence (P28335 33-458): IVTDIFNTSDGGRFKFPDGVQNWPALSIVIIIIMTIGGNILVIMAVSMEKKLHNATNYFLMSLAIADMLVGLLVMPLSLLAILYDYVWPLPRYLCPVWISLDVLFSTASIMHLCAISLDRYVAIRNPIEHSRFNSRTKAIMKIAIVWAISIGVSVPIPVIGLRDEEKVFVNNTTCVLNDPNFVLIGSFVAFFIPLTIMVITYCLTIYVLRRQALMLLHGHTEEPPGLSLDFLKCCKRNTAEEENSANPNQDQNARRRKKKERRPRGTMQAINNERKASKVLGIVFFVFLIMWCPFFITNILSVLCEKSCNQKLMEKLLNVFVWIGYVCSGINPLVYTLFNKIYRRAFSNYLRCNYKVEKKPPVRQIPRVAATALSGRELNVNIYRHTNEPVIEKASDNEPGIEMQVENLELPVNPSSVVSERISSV
Description: Off-target binding screen. The note with it: 1000 nM, read-out: % Inhibition of Control Specific Binding.

Another series addresses T2, D5 (Homo sapiens, UniProt P21918).
T2 construct: Eurofins Pharma Discovery Services (contract assay)
Description: Off-target binding screen. The note with it: read-out: % Inhibition of Control Specific Binding; for inhibition at 1 µM: 1000 nM.

Another series has as its target T3, CB1 (Homo sapiens, UniProt P21554).
T3 construct: Eurofins Pharma Discovery Services (contract assay)
Description: Off-target binding screen. The note with it: 1000 nM, read-out: % Inhibition of Control Specific Binding.

The target of another series is T4, 5-HT1B (Homo sapiens, UniProt P28222).
T4 construct: Eurofins Pharma Discovery Services (contract screen)
T4 sequence (P28222 whole entry, species assumed): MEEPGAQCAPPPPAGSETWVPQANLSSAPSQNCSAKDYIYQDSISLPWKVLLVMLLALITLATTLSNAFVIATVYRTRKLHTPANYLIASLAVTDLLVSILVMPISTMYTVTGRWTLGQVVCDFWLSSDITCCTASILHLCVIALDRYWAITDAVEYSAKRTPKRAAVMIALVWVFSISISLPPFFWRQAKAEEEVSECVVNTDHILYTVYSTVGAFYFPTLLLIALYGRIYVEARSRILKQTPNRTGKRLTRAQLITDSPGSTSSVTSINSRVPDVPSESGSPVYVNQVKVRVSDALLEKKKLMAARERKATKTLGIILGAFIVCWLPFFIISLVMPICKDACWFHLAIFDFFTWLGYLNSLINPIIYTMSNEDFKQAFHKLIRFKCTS
Description: Off-target binding screen. The note with it: read-out: % Inhibition of Control Specific Binding; for inhibition at 1 µM: 1000 nM.

The next series concerns the target T5, M2 (Homo sapiens, UniProt P08172).
T5 construct: Eurofins Pharma Discovery Services (contract assay)
T5 sequence (P08172 1-466): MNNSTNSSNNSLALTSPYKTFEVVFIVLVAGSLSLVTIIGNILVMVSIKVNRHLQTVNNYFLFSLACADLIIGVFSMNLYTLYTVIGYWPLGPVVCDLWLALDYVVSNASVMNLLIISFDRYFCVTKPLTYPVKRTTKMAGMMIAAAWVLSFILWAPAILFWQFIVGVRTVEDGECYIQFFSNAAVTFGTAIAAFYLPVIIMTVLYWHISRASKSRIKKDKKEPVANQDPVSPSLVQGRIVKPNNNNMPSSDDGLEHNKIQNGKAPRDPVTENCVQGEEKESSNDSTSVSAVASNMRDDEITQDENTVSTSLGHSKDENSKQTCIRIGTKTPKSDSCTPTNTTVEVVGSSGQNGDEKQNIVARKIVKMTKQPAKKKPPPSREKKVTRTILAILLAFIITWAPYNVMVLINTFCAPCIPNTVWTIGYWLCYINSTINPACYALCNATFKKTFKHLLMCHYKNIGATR
Description: Off-target binding screen. The note with it: 1000 nM, read-out: % Inhibition of Control Specific Binding.

The next series has as its target T6, H3 (Homo sapiens, UniProt Q9Y5N1).
T6 construct: Eurofins Pharma Discovery Services (contract assay)
Description: Off-target binding screen. The note with it: 1000 nM, read-out: % Inhibition of Control Specific Binding.

In another series the target is T7, β3 (Homo sapiens, UniProt P13945).
T7 construct: Eurofins Pharma Discovery Services (contract assay)
T7 sequence (P13945 whole entry): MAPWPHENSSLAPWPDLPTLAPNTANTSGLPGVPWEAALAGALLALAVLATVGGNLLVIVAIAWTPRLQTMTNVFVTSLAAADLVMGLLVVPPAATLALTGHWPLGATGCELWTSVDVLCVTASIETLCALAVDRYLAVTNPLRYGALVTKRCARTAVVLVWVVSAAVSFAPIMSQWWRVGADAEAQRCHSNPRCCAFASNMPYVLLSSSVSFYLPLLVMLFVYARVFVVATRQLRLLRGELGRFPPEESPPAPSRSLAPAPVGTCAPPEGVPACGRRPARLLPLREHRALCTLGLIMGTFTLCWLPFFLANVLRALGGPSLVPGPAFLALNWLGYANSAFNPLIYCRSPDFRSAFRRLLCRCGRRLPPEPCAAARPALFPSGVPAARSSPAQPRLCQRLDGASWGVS
Description: Off-target binding screen. The note with it: 1000 nM, read-out: % Inhibition of Control Specific Binding.

Another series addresses T8, H4 (Homo sapiens, UniProt Q9H3N8).
T8 construct: Eurofins Pharma Discovery Services (contract assay)
Description: Off-target binding screen. The note with it: 1000 nM, read-out: % Inhibition of Control Specific Binding.

Another series deals with T9, DAT (Homo sapiens, UniProt Q01959).
T9 construct: Eurofins Pharma Discovery Services
Description: Off-target binding screen. The note with it: 1000 nM, read-out: % Inhibition of Control Specific Binding.

For a further series, the target named is T10, σ1 (Homo sapiens, UniProt Q99720).
T10 construct: Eurofins Pharma Discovery Services (contract assay)
T10 sequence (Q99720 whole entry): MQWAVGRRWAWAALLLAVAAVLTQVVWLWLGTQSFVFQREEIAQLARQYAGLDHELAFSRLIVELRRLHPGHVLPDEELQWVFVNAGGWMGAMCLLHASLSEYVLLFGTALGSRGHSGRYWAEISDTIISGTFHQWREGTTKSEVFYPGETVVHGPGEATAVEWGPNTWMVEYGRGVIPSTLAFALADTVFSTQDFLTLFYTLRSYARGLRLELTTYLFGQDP
Description: Off-target binding screen. The note with it: read-out: % Inhibition of Control Specific Binding; for inhibition at 0.01 µM: 10 nM; for inhibition at 0.1 µM: 100 nM; for inhibition at 1 µM: 1000 nM.

In a further series the target is T11, α1D (Homo sapiens, UniProt P25100).
T11 construct: Eurofins Pharma Discovery Services (contract screen)
T11 sequence (P25100 1-572): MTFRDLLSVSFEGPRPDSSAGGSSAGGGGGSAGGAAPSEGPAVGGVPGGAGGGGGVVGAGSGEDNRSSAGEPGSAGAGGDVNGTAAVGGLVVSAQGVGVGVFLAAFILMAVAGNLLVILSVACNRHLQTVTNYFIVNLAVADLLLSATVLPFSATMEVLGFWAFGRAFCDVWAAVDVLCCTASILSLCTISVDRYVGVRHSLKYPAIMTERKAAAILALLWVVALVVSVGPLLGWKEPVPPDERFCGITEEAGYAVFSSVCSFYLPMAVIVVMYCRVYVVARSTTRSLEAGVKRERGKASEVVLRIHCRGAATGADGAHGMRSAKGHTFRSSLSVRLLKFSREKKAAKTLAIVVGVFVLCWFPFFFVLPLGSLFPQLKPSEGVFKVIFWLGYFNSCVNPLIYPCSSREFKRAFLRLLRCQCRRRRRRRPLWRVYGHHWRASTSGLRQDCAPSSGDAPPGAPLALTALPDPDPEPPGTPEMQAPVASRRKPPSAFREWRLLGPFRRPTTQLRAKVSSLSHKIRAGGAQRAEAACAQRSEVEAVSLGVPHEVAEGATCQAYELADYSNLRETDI
Description: Off-target binding screen. The note with it: read-out: % Inhibition of Control Specific Binding; for inhibition at 0.01 µM: 10 nM; for inhibition at 0.1 µM: 100 nM; for inhibition at 1 µM: 1000 nM.

The target in another series is T12, SERT (Homo sapiens, UniProt P31645).
T12 construct: Eurofins Pharma Discovery Services
T12 sequence (P31645 whole entry, species assumed): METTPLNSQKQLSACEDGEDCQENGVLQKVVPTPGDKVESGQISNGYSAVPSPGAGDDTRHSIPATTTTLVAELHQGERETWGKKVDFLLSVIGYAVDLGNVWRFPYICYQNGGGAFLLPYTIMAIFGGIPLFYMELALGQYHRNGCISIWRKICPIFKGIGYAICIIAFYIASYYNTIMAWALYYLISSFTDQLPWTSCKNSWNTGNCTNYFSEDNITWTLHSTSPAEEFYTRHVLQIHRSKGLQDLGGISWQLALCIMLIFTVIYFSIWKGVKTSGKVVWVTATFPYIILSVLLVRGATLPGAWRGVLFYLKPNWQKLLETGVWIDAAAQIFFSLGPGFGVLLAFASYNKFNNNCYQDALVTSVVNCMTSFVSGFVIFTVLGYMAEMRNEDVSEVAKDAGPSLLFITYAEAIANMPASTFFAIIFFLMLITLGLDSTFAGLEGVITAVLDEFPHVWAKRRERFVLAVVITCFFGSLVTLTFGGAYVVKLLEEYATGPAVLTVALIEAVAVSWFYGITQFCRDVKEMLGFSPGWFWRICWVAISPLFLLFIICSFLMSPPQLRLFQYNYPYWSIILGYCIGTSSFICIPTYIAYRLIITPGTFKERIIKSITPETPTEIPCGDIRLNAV
Description: Off-target binding screen. The note with it: 1000 nM, read-out: % Inhibition of Control Specific Binding.

In the next series the target is T13, hERG channel (Homo sapiens, UniProt Q12809).
T13 construct: host or cells: CHO (hERG-CHO)
T13 sequence (Q12809 whole entry): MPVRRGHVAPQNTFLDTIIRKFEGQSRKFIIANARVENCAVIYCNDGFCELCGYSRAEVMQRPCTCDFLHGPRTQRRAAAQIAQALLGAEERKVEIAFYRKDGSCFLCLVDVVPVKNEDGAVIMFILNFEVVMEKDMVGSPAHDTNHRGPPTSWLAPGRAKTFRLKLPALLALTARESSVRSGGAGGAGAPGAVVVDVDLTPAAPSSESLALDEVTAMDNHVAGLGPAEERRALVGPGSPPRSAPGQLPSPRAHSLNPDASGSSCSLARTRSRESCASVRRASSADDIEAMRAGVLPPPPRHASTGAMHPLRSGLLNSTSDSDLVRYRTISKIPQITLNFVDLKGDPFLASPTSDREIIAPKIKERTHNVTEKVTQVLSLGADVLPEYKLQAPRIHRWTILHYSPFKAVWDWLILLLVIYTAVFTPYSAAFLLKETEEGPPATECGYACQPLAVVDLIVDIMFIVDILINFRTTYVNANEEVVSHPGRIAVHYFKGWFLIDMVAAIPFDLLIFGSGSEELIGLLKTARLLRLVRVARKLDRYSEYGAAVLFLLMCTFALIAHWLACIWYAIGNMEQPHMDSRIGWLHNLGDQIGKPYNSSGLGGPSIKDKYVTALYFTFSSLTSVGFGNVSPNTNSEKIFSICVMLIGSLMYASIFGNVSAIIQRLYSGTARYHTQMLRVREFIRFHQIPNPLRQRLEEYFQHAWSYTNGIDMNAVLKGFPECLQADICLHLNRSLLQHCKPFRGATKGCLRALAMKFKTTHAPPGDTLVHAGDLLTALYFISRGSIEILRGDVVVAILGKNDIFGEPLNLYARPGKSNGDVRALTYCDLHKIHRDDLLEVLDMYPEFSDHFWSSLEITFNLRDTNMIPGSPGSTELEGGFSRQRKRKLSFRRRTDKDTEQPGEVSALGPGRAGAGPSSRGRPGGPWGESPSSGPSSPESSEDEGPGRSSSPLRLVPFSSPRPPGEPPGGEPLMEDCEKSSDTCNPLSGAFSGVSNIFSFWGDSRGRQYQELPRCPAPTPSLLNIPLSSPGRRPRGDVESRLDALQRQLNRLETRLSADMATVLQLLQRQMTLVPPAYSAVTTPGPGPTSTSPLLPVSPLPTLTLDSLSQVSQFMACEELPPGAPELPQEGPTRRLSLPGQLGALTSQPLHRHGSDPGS
Description: hERG-CHO automated patch-clamp. It is filed as cell-based. Background: Block of hERG is tested as a sign of cardiac risk.

For the next series, the target named is T14, M1 (Homo sapiens, UniProt P11229).
T14 construct: Eurofins Pharma Discovery Services (contract assay)
T14 sequence (P11229 1-460): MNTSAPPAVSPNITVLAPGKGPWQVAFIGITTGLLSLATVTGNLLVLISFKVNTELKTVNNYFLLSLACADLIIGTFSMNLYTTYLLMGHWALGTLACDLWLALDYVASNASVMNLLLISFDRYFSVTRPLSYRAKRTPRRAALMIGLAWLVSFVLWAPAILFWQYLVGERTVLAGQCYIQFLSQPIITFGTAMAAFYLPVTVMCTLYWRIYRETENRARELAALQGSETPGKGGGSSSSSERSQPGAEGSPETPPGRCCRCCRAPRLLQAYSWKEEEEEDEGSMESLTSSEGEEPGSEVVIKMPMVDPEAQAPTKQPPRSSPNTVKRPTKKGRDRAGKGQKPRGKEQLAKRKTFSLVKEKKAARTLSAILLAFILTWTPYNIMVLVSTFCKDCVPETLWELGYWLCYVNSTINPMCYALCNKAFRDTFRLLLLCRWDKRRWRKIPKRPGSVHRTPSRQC
Description: Off-target binding screen. The note with it: 1000 nM, read-out: % Inhibition of Control Specific Binding.

The target in a further series is T15, β2 (Homo sapiens, UniProt P07550).
T15 construct: Eurofins Pharma Discovery Services (contract screen)
T15 sequence (P07550 whole entry): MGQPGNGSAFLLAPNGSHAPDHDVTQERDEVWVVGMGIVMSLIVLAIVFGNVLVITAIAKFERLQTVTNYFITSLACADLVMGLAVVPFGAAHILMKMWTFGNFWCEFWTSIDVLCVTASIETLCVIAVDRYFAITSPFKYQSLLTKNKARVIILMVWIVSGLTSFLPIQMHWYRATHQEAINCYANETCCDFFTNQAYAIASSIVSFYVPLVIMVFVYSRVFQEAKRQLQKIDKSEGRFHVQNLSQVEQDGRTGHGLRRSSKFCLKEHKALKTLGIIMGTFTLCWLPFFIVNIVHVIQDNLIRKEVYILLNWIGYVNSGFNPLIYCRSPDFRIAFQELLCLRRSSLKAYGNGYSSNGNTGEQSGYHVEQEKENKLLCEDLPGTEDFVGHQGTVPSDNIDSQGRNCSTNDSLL
Description: Off-target binding screen. The note with it: 1000 nM, read-out: % Inhibition of Control Specific Binding.

A further series has as its target T16, 5-HT6 (Homo sapiens, UniProt P50406).
T16 construct: Eurofins Pharma Discovery Services (contract screen)
Description: Off-target binding screen. The note with it: 1000 nM, read-out: % Inhibition of Control Specific Binding.

T3 sequence (P21554 whole entry, species assumed): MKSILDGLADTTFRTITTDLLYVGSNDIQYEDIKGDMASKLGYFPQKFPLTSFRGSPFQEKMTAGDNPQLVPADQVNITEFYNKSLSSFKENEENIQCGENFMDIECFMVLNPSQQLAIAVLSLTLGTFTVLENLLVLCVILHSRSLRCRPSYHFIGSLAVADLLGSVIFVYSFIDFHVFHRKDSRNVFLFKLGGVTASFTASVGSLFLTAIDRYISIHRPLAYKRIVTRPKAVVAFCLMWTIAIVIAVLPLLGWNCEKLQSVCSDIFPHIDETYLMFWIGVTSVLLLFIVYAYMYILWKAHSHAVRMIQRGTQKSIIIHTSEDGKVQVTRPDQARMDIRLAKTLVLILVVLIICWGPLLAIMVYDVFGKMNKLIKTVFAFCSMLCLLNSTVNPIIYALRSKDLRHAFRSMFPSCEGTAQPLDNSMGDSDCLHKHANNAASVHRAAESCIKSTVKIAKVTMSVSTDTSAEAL
T2 sequence (P21918 whole entry): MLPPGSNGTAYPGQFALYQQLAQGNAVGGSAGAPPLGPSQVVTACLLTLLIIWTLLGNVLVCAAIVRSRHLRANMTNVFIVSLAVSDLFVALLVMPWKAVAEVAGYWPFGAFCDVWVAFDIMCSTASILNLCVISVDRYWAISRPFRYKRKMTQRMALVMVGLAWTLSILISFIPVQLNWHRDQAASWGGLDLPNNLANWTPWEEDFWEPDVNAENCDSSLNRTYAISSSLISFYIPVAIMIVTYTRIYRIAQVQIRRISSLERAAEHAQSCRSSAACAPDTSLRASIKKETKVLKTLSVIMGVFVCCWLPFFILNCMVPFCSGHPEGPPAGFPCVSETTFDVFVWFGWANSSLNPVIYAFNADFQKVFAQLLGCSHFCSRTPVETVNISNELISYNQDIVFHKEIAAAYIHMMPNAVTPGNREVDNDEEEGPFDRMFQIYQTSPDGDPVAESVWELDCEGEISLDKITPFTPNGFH
T8 sequence (Q9H3N8 whole entry): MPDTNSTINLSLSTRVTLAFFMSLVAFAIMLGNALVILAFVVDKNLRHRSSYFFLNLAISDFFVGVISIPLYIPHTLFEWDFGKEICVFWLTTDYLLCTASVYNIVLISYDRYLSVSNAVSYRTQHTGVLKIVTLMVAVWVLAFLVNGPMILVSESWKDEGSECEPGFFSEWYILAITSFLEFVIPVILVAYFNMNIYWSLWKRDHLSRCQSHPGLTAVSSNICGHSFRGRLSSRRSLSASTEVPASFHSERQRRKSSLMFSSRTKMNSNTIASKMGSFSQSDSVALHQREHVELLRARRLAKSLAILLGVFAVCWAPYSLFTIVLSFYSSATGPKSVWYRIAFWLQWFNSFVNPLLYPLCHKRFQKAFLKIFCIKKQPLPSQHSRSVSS

Turning to `O=C(c1ccc(F)c(Cl)c1)N1CCC(F)(CNCCOc2ccccc2)CC1` [Compound 3], the inhibition at 1 µM is -15% at 5-HT2C; 40% at D5; -9% at CB1; -7% on 5-HT1B; -20% on M2; -14% at H3. Further, the inhibition at 1 µM on β3 is -2%; on H4, -11%; on DAT, -2%; at σ1, 88%; on α1D, 84%; on SERT, 8%. For the same compound, the inhibition at 1 µM is -2% on M1, 2% at β2 and -9% at 5-HT6. For the same compound, the inhibition at 0.01 µM at σ1 came to 1%; at α1D, 19%. Besides, the figures for the inhibition at 0.1 µM on σ1 and on α1D were 15% and 40%, respectively. Also, the entries for the “% Inhibition of Tail Current in hERG-CHO” value at hERG channel (0,1 µM), at hERG channel (1 µM) and on hERG channel (10 µM) were 1.0%, 14.2% and 64.9%, respectively.
For `CNc1ccccc1OCCNCC1(F)CCN(C(=O)c2ccc(F)c(Cl)c2)CC1` [Compound 44, (3-Chloro-4-fluorophenyl)(4-fluoro-4-(((2-(2-(methylamino)phenoxy)ethyl)amino)methyl)piperidin-1-yl)methanone], the inhibition at 1 µM at 5-HT2C was -9%; on D5, 29%; at CB1, 3%; on 5-HT1B, 0%; on M2 it was -12%; on H3, -13%. In addition, the inhibition at 1 µM on β3 is -7%; at H4, -11%; at DAT, 0%; at σ1, 84%; at α1D it was 80%; on SERT, 18%. The inhibition at 1 µM is -6% at M1, -3% at β2 and 3% on 5-HT6. The results for the inhibition at 0.01 µM at σ1 and at α1D were 11% and -1%, respectively. The inhibition at 0.1 µM on σ1 amounted to 31%; on α1D it was 32%. The “% Inhibition of Tail Current in hERG-CHO” value at hERG channel (1 µM) stood at 17.5%.
Take `O=C(c1ccc(F)c(Cl)c1)N1CCC(F)(CNCCOc2cccc3[nH]ccc23)CC1` [Compound 56, (4-(((2-((1H-Indol-4-yl)oxy)ethyl)amino)methyl)-4-fluoropiperidin-1-yl)(3-chloro-4-fluorophenyl)methanone]: the inhibition at 1 µM on 5-HT2C was 6%; at D5, 91%; on CB1, -15%; on 5-HT1B, 63%; at M2, -8%; on H3, -17%. Further, the inhibition at 1 µM was 1% at β3; 5% on H4; 37% at DAT; 86% at σ1; 22% on SERT; -10% at M1. In addition, the inhibition at 1 µM turned out to be 9% at β2 and 1% at 5-HT6. Further, the inhibition at 0.001 µM on D5 (1 nM) was -10%; on α1D (1 nM) it was -7%. Besides, the inhibition at 0.01 µM at D5 (10 nM) was -3%; at 5-HT1B (10 nM) it was 1%; on σ1 it was 1%; on α1D it was 23%. Besides, the inhibition at 0.1 µM came out at 53% at D5 (100 nM), 17% at 5-HT1B (100 nM), 22% at σ1 and 63% at α1D. In addition, the “% Inhibition of Tail Current in hERG-CHO” value on hERG channel (0,1 µM) is given as 0.3%; at hERG channel (1 µM), 6.4%; at hERG channel (10 µM), 21.1%.
